Data set [1] relates to CAL-27. Description: Induction of apoptosis in human CAL-27 cells assessed as apoptotic cells at 10 nM incubated for 72 hrs by Annexin V-FITC/propidium iodide staining based flow cytometry analysis (reference value: 10.29%). The class given is functional.
Data set [2] relates to CAL-27. Description: Induction of apoptosis in human CAL-27 cells assessed as viable cells at 1000 nM incubated for 72 hrs by Annexin V-FITC/propidium iodide staining based flow cytometry analysis (reference value: 90.41%). In kind it is functional. Particulars: read-out: Activity.
The subject of data set [3] is CAL-27. Put plainly: Antitumor activity against human CAL-27 cells xenografted in BALB/c mouse model assessed as cancer cell death at 0.6 mg/kg, iv treated four times a week for 30 days by HE staining analysis. In kind it is functional, organism-based. Particulars: time 30.0 day. For orientation: In xenograft studies the graft and the host belong to different species.

The test system of data set [4] is CAL-27. Description: Effect on cell growth factor in human CAL-27 cells assessed as regulation of cell growth factor related gene expression at 1 nM incubated for 48 hrs by GO analysis. In kind it is functional, cell-based.
Data set [5] has as its system CAL-27. Put plainly: Induction of apoptosis in human CAL-27 cells assessed as early apoptotic cells at 1000 nM incubated for 72 hrs by Annexin V-FITC/propidium iodide staining based flow cytometry analysis (reference value: 7.74%). In kind it is functional.
Data set [6] is described as follows: Half life in ICR mouse at 3 mg/kg, po measured upto 24 hrs by LC-MS/MS analysis. In kind it is ADME, organism-based. The conditions noted are these: in vivo.
The test system of data set [7] is CAL-27. Put plainly: Antitumor activity against human CAL-27 cells xenografted in BALB/c mouse model assessed as reduction in reduction in Ki-67 expression at 0.6 mg/kg, iv treated four times a week for 30 days by immunohistochemical staining analysis. In kind it is functional, organism-based. Particulars: time 30.0 day.
The subject of data set [8] is CAL-27. Put plainly: Induction of apoptosis in human CAL-27 cells assessed as early apoptotic cells at 100 nM incubated for 72 hrs by Annexin V-FITC/propidium iodide staining based flow cytometry analysis (reference value: 7.74%). In kind it is functional. On the technique in general: Flow cytometry measures light scatter and fluorescence of single cells or particles in a stream.

A further data set relates to A549. Put plainly: Cytotoxicity against human A549 cells incubated for 72 hrs by MTT assay. In kind it is functional, cell-based. Particulars: A549, 72 h. (In general: Tetrazolium dyes change colour on reduction, which living cells bring about.)
Data set [9] deals with CAL-27. Put plainly: Induction of apoptosis in human CAL-27 cells assessed as viable cells at 1 nM incubated for 72 hrs by Annexin V-FITC/propidium iodide staining based flow cytometry analysis (reference value: 88.23%). The class given is functional. Particulars: read-out: Activity.

Experimental findings from ChEMBL document CHEMBL6153048, “Synthesis and pharmacological evaluation of natural product diphyllin derivatives against head and neck squamous cell carcinoma” (Eur J Med Chem, 2025) are described below.

The source made the active and inactive calls.

Turning to `COc1cc2c(O[C@@H]3O[C@@H]4CO[C@@H](c5ccsc5)O[C@H]4[C@H](O)[C@H]3O)c3c(c(-c4ccc5c(c4)OCO5)c2cc1OC)C(=O)OC3`, the Activity with CAL-27 [1] came to 41.84%; in the data set on CAL-27 [5], 25.35%; in the data set on CAL-27 [8] it was 27.61%. In the data set with CAL-27 [2], the viability at 1 µM stood at 28.1%. Moreover, the result in the data set on CAL-27 [3], with CAL-27 [4] and in the data set with CAL-27 [7] was Active. Also, the half-life in [6] was 31 min. Also, the IC50 in the data set on A549 was 117 nM.

Turning to `COc1cc2c(O)c3c(c(-c4ccc5c(c4)OCO5)c2cc1OC)C(=O)OC3` [DIPHYLLIN], in the data set with CAL-27 [9], the viability at 0.001 µM came to 91.4%.

As usually defined, the half-life is the time needed for the level to fall by half in the phase considered. Read a low half-life as rapid decline. A word on the IC50: it is the concentration at which inhibition is half-maximal.
